Each structure is given as a SMILES string. Several values for one entry are separate records, joined by “and”; a condition that tells them apart may be missing. Equal entries are not always repeated.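 Grown in 96-well plates, cells were treated for 48 hours with each compound at five concentrations. Insufficient inhibition: endpoint recorded as highest concentration tested. At the GI50, growth is halved. TGI: total growth inhibition.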 Bounds are passed on as bounds.

The test system of the first test is COLO 205 colon. Briefly: inhibition of tumour cell growth, NCI panel, 48 h.
Take `COc1ccc(Cl)cc1Nc1nc(C(F)(F)F)ccc1C(=O)NN`: the GI50 was 7.76 µM and the TGI was greater than 100 µM.
As for `CC(C)c1ccc2nc3ccc(C(=O)NCCN(C)C)cn3c(=O)c2c1`, the TGI was 33.8 µM.
With `C#C[C@]1(O)CC[C@H]2[C@@H]3CC=C4c5nc(Nc6ccccn6)sc5CC[C@]4(C)[C@H]3CC[C@@]21C`, the GI50 is 1.81 µM and the TGI amounted to 4.05 µM.
On to `CSc1ccc(C2=Nn3c(nnc3-c3ccc(F)c(Cl)c3)SC2)cc1`, for which the GI50 is 25.9 µM and the TGI was greater than 100 µM.
Regarding `CNC(=O)Nc1ccc(-c2nc(N3CCOCC3)nc3c2cnn3C2CCOCC2)cc1`, the GI50 was 0.247 µM and the TGI is greater than 100 µM.
In turn, `NCCCCNCCCNC(=O)CNC(=O)CC(O)C(N)CCCC(NC(=O)C(CN)NC(=O)C(O)CNC(=O)CC(N)c1ccc(O)cc1)C(=O)O` (centres undefined) yielded a TGI greater than 10 µM.
In the case of `N/C(=N\OC(=O)c1ccccc1)C(C(=O)NOC(=O)c1ccccc1)C1CCCCC1` (centres undefined), the GI50 was 11.6 µM and the TGI was found to be 26.8 µM.
Compound `CCOc1ccc(N=Nc2ccc3cc(/C(C)=N/NC(=O)/C(C#N)=C\c4ccc(N(CCC#N)CCC#N)cc4)c(=O)oc3c2)cc1` returned a TGI greater than 10 µM.
In the case of `CC(C)(C)OC(=O)NCC(C#N)CNC(=O)OC(C)(C)C`, the TGI was greater than 100 µM.
As for `O=C(Nc1ccc(OC(F)(F)F)cc1)c1sccc1NCc1ccnc2ccccc12`, the GI50 is 3.74 µM and the TGI worked out at 13.8 µM.
In turn, `CCN(CC)c1ccc(NC(=S)NN(C)C)cc1` had a TGI greater than 10 µM.
As for `COc1ccc(-c2cc(-c3ccc(Cl)cc3)c(C#N)c(=O)n2CCCCC(=O)Nc2ccccc2N)cc1`, the GI50 is 4.04 µM and the TGI is greater than 100 µM.
Regarding `CN1CCCN(CCNc2nccc(-c3c(-c4cccc(O)c4)nc4sccn34)n2)S1(=O)=O`, the GI50 was 0.423 µM and 0.477 µM; the TGI is 12.4 µM and 21.8 µM.
In the case of `CCOC(=O)c1c(NC(=O)c2ccc(C(C)C)cc2)sc2c(CN(C)C)c(O)ccc12`, the GI50 was 2.06 µM and the TGI turned out to be 4.5 µM.
As for `COc1ccc(C(=O)N2c3ccccc3Sc3ccccc32)c(F)c1`, the GI50 was 0.445 µM and the TGI is 26.8 µM.
Compound `CC(O)CNC1=CC(=O)C(=O)c2ccccc21` (centres undefined) showed a TGI of 22 µM.
With `CC1(C)N=C(N)N=C(N)N1c1ccc(CCc2ccccc2)c(Cl)c1`, the GI50 was 0.0694 µM and the TGI was determined as 6.83 µM.

Another test relates to ACHN renal. Briefly: inhibition of tumour cell growth, NCI panel, 48 h.
On to `COc1ccc(Cl)cc1Nc1nc(C(F)(F)F)ccc1C(=O)NN`, for which the GI50 was 2.53 µM and the TGI is greater than 100 µM.
Take `CC(C)c1ccc2nc3ccc(C(=O)NCCN(C)C)cn3c(=O)c2c1`: the TGI came to 94.2 µM.
In the case of `C#C[C@]1(O)CC[C@H]2[C@@H]3CC=C4c5nc(Nc6ccccn6)sc5CC[C@]4(C)[C@H]3CC[C@@]21C`, the GI50 is 1.37 µM and the TGI came out at 10.2 µM.
On the same counts, the results for `CSc1ccc(C2=Nn3c(nnc3-c3ccc(F)c(Cl)c3)SC2)cc1` are 13.7 µM and 33.6 µM.
On the same counts, the results for `CNC(=O)Nc1ccc(-c2nc(N3CCOCC3)nc3c2cnn3C2CCOCC2)cc1` are 0.225 µM and 1.74 µM.
As to `NCCCCNCCCNC(=O)CNC(=O)CC(O)C(N)CCCC(NC(=O)C(CN)NC(=O)C(O)CNC(=O)CC(N)c1ccc(O)cc1)C(=O)O` (centres undefined), the TGI is greater than 10 µM.
With `N/C(=N\OC(=O)c1ccccc1)C(C(=O)NOC(=O)c1ccccc1)C1CCCCC1` (centres undefined), the GI50 is 3.04 µM and the TGI is 10.9 µM.
`CCOc1ccc(N=Nc2ccc3cc(/C(C)=N/NC(=O)/C(C#N)=C\c4ccc(N(CCC#N)CCC#N)cc4)c(=O)oc3c2)cc1`: the TGI is greater than 10 µM.
In turn, `CC(C)(C)OC(=O)NCC(C#N)CNC(=O)OC(C)(C)C` displayed a TGI greater than 100 µM.
Turning to `O=C(Nc1ccc(OC(F)(F)F)cc1)c1sccc1NCc1ccnc2ccccc12`, the GI50 is 2.56 µM and the TGI was greater than 100 µM.
As to `CCN(CC)c1ccc(NC(=S)NN(C)C)cc1`, the TGI was greater than 10 µM.
Consider `COc1ccc(-c2cc(-c3ccc(Cl)cc3)c(C#N)c(=O)n2CCCCC(=O)Nc2ccccc2N)cc1`, for which the GI50 is 5.25 µM and the TGI was greater than 100 µM.
On to `CN1CCCN(CCNc2nccc(-c3c(-c4cccc(O)c4)nc4sccn34)n2)S1(=O)=O`, for which the GI50 is 2.72 µM and 2.91 µM; the TGI is 75 µM and > 100 µM.
Turning to `CCOC(=O)c1c(NC(=O)c2ccc(C(C)C)cc2)sc2c(CN(C)C)c(O)ccc12`, the GI50 was 3.03 µM and the TGI stood at 9.24 µM.
On the same counts, the results for `COc1ccc(C(=O)N2c3ccccc3Sc3ccccc32)c(F)c1` are 0.831 µM and greater than 100 µM.
In the case of `CC(O)CNC1=CC(=O)C(=O)c2ccccc21` (centres undefined), the TGI amounted to 35.6 µM.
Regarding `CC1(C)N=C(N)N=C(N)N1c1ccc(CCc2ccccc2)c(Cl)c1`, the GI50 was 1.97 µM and the TGI was greater than 100 µM.

The test system of a further test is SK-OV-3 ovarian. Briefly: inhibition of tumour cell growth, NCI panel, 48 h.
For `COc1ccc(Cl)cc1Nc1nc(C(F)(F)F)ccc1C(=O)NN`, the GI50 was 3.88 µM and the TGI is greater than 68.1 µM.
In the case of `CC(C)c1ccc2nc3ccc(C(=O)NCCN(C)C)cn3c(=O)c2c1`, the TGI turned out to be 33.5 µM.
In the case of `C#C[C@]1(O)CC[C@H]2[C@@H]3CC=C4c5nc(Nc6ccccn6)sc5CC[C@]4(C)[C@H]3CC[C@@]21C`, the GI50 is 1.32 µM and the TGI was 5.29 µM.
For the compound `CSc1ccc(C2=Nn3c(nnc3-c3ccc(F)c(Cl)c3)SC2)cc1`, the GI50 was 13.5 µM and the TGI came to 41.9 µM.
On the same counts, the results for `CNC(=O)Nc1ccc(-c2nc(N3CCOCC3)nc3c2cnn3C2CCOCC2)cc1` are 0.12 µM and 0.685 µM.
Take `NCCCCNCCCNC(=O)CNC(=O)CC(O)C(N)CCCC(NC(=O)C(CN)NC(=O)C(O)CNC(=O)CC(N)c1ccc(O)cc1)C(=O)O` (centres undefined): the TGI is greater than 10 µM.
Regarding `N/C(=N\OC(=O)c1ccccc1)C(C(=O)NOC(=O)c1ccccc1)C1CCCCC1` (centres undefined), the GI50 is 15.8 µM and the TGI was 29.7 µM.
Compound `CCOc1ccc(N=Nc2ccc3cc(/C(C)=N/NC(=O)/C(C#N)=C\c4ccc(N(CCC#N)CCC#N)cc4)c(=O)oc3c2)cc1` returned a TGI greater than 10 µM.

The values are drawn from PubChem BioAssay (NCI).
